Test results as given in patent publication US20030228357A1, “Dry granulated formulations of azithromycin” (Pfizer Inc., priority 2002, published 2003).
Entries after “also recorded” stand apart in the source; their conditions may differ.

Experiments:
Type in all cases: physicochemical
[1] = Tablet hardness, Schleuniger hardness tablet tester; details: for Avg Tablet Hardness: Table 4C, low drug loading, diluent MCC
Experimental: (§1) All four formulations were compressed on the compaction simulator using either 0.344″×0.688″ oval tooling, or ½″ standard round concave (SRC) tooling. The tablets were tested for hardness (kP scale), using a Schleuniger hardness tablet tester (Dr. Schleuniger Pharmatron AG, Solothurn, Switzerland), and for friability (100 rotations/4 minutes) using a Vanderkamp Friabulator Tablet Tester (Vankel, Cary, N.C., US).

[2] = Slug (compact) hardness, Schleuniger hardness tablet tester
Description: A compaction simulator was used to compress the blends. The compaction simulator was designed as a single station tablet press in which the compression dwell time can be adjusted to simulate different types of tablet presses. All the formulations were slugged on the compaction simulator configured as the Kilian RX-67 press with a dwell time of 0.3145 seconds using […] round flat face tooling. The slugs were then comminuted using a Fitz mill with a 0.125″ screen with knives forward and run at slow speed. […] The slugs were tested for hardness (kP scale), using a Schleuniger hardness tablet tester (Dr. Schleuniger Pharmatron AG, Solothurn, Switzerland).

[3] = Tablet hardness, Schleuniger hardness tablet tester
[4] = Density and Carr's Compressibility Index (flowability) of dry blends and dry granulations; details: for Granulation Carr's Index / Granulation Density As Is / Granulation Density Tapped: long blend
Description: Carr's Compressibility Index was used to evaluate the flowability of the four dry granulations. Carr's Compressibility Index is a simple test to evaluate flowability by comparing both the initial and final (tapped) bulk volumes and the rate of packing down. A useful empirical guide to flow is given by Carr's compressibility index: Compressibility Index(%)=[(tapped density−initial density)/tapped density]×100 […] The procedure is described in Int. J. Pharm. Tech. & Prod. Mfr., 6(3) 10-16, 1985.

[5] = Indices of tableting performance (Hiestand) of bulk azithromycin; details: forms N, M, G, A milled, F and J unmilled
Experimental: Indices of tableting performance, for several azithromycin forms, were assessed to identify any mechanical deficiencies or attributes that may affect tablet formulation for these azithromycin forms. This assessment was performed in accordance with the procedures described in “Indices of Tableting, Performance” […] and D. P. Smith, Powder Technology 38 [1984] pp. 145-159. Specifically, the Brittle Fracture Index, BFI, was calculated from the ratio of a material's regular tensile strength to its compromised tensile strength. Strain Index, SI, was determined from the dynamic indentation hardness test. Worst Case Bonding Index was determined by assessing the extent of particle bonding remaining after decompression assuming a very short compression dwell time and a plastic mechanism of particle separation during decompression. Tableting Indices were determined for bulk azithromycin lots of six different crystalline forms, specifically forms N, M, G, A, F and J. Forms N, M and G were milled with a Fitzmill (Model JT, The Fitzpatrick Co., Elmhurst, Ill.) using a 0.027'' screen and knives at high speed in an attempt to match the smaller particle size of milled Form A. Unmilled forms F and J were evaluated “as is” due to their relatively small particle sizes.

[6] = Tablet friability, Vanderkamp Friabulator (100 rotations/4 minutes)
Experimental: Friability is a standard test known to one skilled in the art. Friability is measured under standardized conditions by weighing out a certain number of tablets (generally 20 tablets or less), placing them in a rotating Plexiglas drum in which they are lifted during replicate revolutions by a radial lever, and then dropped approximately 8 inches. After replicate revolutions (typically 100 revolutions at 25 rpm), the tablets are reweighed and the percentage of formulation abraded or chipped is calculated. The friability of the tablets, of the present invention, is preferably in the range of about 0% to 3%, and values about 1%, or less, are considered acceptable for most drug and food tablet contexts. Friability which approaches 0% is particularly preferred.
as §1

[7] = as above; details: Table 3D; high drug loading (58.2 wt % azithromycin), DCP anhydrous; modified capsule shape tablets, target weight 450 mg
[8] = Table 4A, low drug loading (35.2 wt % azithromycin), diluent MCC
[9] = Table 4B, high drug loading (58.2 wt % azithromycin), diluent MCC
[10] = Table 4D, high drug loading, diluent MCC, modified capsule shape
[11] = Table 7A, 55.76 wt % azithromycin, lactose anhydrous, corn starch, roller compaction 850 psi, sesquihydrate
[12] = Table 3C, low drug loading (35.2 wt % azithromycin), DCP anhydrous, oval tablets, target weight 750 mg
[13] = Table 6B, Drug Loading High, Oval 0.344″ × 0.688″
[14] = Table 6B, Drug Loading Low, Oval 0.344″ × 0.688″
[15] = Table 6A, Drug Loading High (58.2 wt % azithromycin), DCP anhydrous
[16] = Table 6A, Drug Loading Low (35.2 wt % azithromycin), DCP anhydrous
[17] = Table 6B, Drug Loading High, Modified Capsule 0.262″ × 0.531″
[18] = Table 6B, Drug Loading Low, Modified Capsule 0.262″ × 0.531″
[19] = Table 6B, Drug Loading Low, ½″ SRC
[20] = Table 3A, low drug loading: 35.2 wt % azithromycin, 54.8 wt % dicalcium phosphate anhydrous
[21] = Table 3B, high drug loading: 58.2 wt % azithromycin, 31.8 wt % dicalcium phosphate anhydrous
[22] = Table 4C, low drug loading, diluent Lactose, Oval tooling
[23] = Table 4C, low drug loading, diluent Lactose, SRC (½″) tooling

CC[C@H]1OC(=O)[C@H](C)[C@@H](O[C@H]2C[C@@](C)(OC)[C@@H](O)[C@H](C)O2)[C@H](C)[C@@H](O[C@@H]2O[C@H](C)C[C@H](N(C)C)[C@H]2O)[C@](C)(O)C[C@@H](C)CN(C)[C@H](C)[C@@H](O)[C@]1(C)O [Form G, azithromycin sesquihydrate]
Avg Tablet Hardness ([1]; Oval tooling): 6.1 kP | Avg Tablet Hardness ([1]; SRC (½″) tooling): 5.3 kP | Avg Slug Hardness [2, 8]: 13 kP | Avg Slug Hardness [2, 9]: 9 kP | Avg Tablet Hardness [3, 10]: 5.8 kP | Dry Granulation Carr's Index [4, 8]: 25% | Dry Granulation Density As Is [4, 8]: 0.51 g/cc | Dry Granulation Density Tapped [4, 8]: 0.68 g/cc | Dry Granulation Carr's Index [4, 9]: 25% | Dry Granulation Density As Is [4, 9]: 0.53 g/cc | Dry Granulation Density Tapped [4, 9]: 0.71 g/cc | Dry Granulation Density Tapped ([4]; Table 7A, 55.76 wt % azithromycin, lactose anhydrous, corn starch, roller compaction 850 psi): 0.86 g/cc | Dry Granulation Carr's Index [4, 11]: 22% | Dry Granulation Density As Is [4, 11]: 0.67 g/cc | Strain Index (SI) ([5]; sesquihydrate): 0.0043 | Tensile Strength ([5]; sesquihydrate): 1.03 Mpa | Worst Case Bonding Index (BIw) × 10^2 ([5]; sesquihydrate): 0.8 | Friability ([6]; Table 4C, low drug loading, diluent MCC, Oval tooling): 1.30% | Friability ([6]; Table 4C, low drug loading, diluent MCC, SRC (½″) tooling): 0.78% | Friability [6, 10]: 0.41%

CCC1OC(=O)C(C)C(O[C@H]2C[C@@](C)(OC)[C@@H](O)C(C)O2)C(C)[C@@H](OC2OC(C)CC(N(C)C)[C@H]2O)[C@@](C)(O)C[C@@H](C)CN(C)[C@H](C)[C@@H](O)[C@]1(C)O (stereo partly shown) [Form J, azithromycin monohydrate hemi-n-propanol solvate]
Avg Hardness [1, 12]: 9.1 kP | Avg Hardness [1, 13]: 10.2 kP | Avg Hardness [1, 14]: 9.1 kP | Avg Slug Hardness ([2]; Table 3A, low drug loading: 35.2 wt % azithromycin, 54.8 wt % dicalcium phosphate anhydrous, long blend): 14 kP | Avg Slug Hardness ([2]; Table 3B, high drug loading: 58.2 wt % azithromycin, 31.8 wt % dicalcium phosphate anhydrous, long blend): 11 kP | Avg Slug Hardness [2, 15]: 11 kP | Avg Slug Hardness [2, 16]: 14 kP | Avg Hardness ([3]; Table 3D, high drug loading (58.2 wt % azithromycin), DCP anhydrous, modified capsule shape tablets, target weight 450 mg): 6.5 kP | Avg Hardness [3, 17]: 6.5 kP | Avg Hardness [3, 18]: 6.9 kP | Avg Hardness [3, 19]: 5.4 kP | Granulation Carr's Index [4, 20]: 22% | Granulation Density As Is [4, 20]: 0.87 g/cc | Granulation Density Tapped [4, 20]: 1.12 g/cc | Granulation Carr's Index [4, 21]: 28% | Granulation Density As Is [4, 21]: 0.67 g/cc | Granulation Density Tapped [4, 21]: 0.93 g/cc | Dry Granulation Carr's Index [4, 15]: 28% | Dry Granulation Density As Is [4, 15]: 0.67 g/cc | Dry Granulation Density Tapped [4, 15]: 0.93 g/cc | Dry Granulation Carr's Index [4, 16]: 22% | Dry Granulation Density As Is [4, 16]: 0.87 g/cc | Dry Granulation Density Tapped [4, 16]: 1.12 g/cc | Friability [7]: 0.38% | Brittle Fracture Index (BFI) [5]: 0.11 | Strain Index (SI) [5]: 0.0043 | Tensile Strength [5]: 0.69 Mpa | Worst Case Bonding Index (BIw) × 10^2 [5]: 0.7 | Friability [6, 12]: broke during friability testing; also recorded: Broken | Friability [6, 17]: 0.38% | Friability [6, 13]: 0.71% | Friability [6, 18]: 0.52% | Friability [6, 14]: Broken Tablets | Friability [6, 19]: 1.46%

CCC1OC(=O)C(C)C(O[C@H]2C[C@@](C)(OC)[C@@H](O)C(C)O2)C(C)[C@@H](OC2OC(C)CC(N(C)C)[C@H]2O)[C@@](C)(O)C[C@@H](C)CN(C)[C@H](C)[C@@H](O)[C@]1(C)O (stereo partly shown) [Form H, azithromycin monohydrate hemi-1,2 propanediol solvate]
Avg Tablet Hardness [3, 22]: 7.0 kP | Avg Tablet Hardness [3, 23]: 7.5 kP | Friability [6, 22]: Broken | Friability [6, 23]: 0.53%
